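These data come from cells grown in 96-well plates and exposed to compound for 48 hours at five concentrations. Abbreviation: GI50, concentration required for 50% inhibition of growth. At the TGI there is no net growth.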
Legend:
Assay in all cases: NCI-60 cell line screen, 48 h
COLO 205 colon = system: COLO 205 colon
MALME-3M melanoma = system: MALME-3M melanoma
SF-268 CNS = system: SF-268 CNS
NCI-H226 lung = system: NCI-H226 lung
LOX IMVI melanoma = system: LOX IMVI melanoma
MOLT-4 leukemia = system: MOLT-4 leukemia
SN12C renal = system: SN12C renal
U251 CNS = system: U251 CNS
TK-10 renal = system: TK-10 renal
EKVX NSCLC = system: EKVX NSCLC
K-562 leukemia = system: K-562 leukemia
SF-295 CNS = system: SF-295 CNS
UO-31 renal = system: UO-31 renal
NCI-H460 lung = system: NCI-H460 lung
KM12 colon = system: KM12 colon
HOP-92 NSCLC = system: HOP-92 NSCLC
NCI-H23 lung = system: NCI-H23 lung
M14 melanoma = system: M14 melanoma
SW-620 colon = system: SW-620 colon
NCI/ADR-RES ovarian = system: NCI/ADR-RES ovarian
HCC-2998 colon = system: HCC-2998 colon
NCI-H522 lung = system: NCI-H522 lung
CAKI-1 renal = system: CAKI-1 renal
UACC-257 melanoma = system: UACC-257 melanoma
786-0 renal = system: 786-0 renal
HCT-116 colon = system: HCT-116 colon
SNB-19 CNS = system: SNB-19 CNS
A549 NSCLC = system: A549 NSCLC
BT-549 breast = system: BT-549 breast
SK-MEL-28 melanoma = system: SK-MEL-28 melanoma
RXF 393 renal = system: RXF 393 renal
MCF7 breast = system: MCF7 breast
SR leukemia = system: SR leukemia
PC-3 prostate = system: PC-3 prostate
HL-60(TB) leukemia = system: HL-60(TB) leukemia
ACHN renal = system: ACHN renal
SK-MEL-5 melanoma = system: SK-MEL-5 melanoma
SF-539 CNS = system: SF-539 CNS
HOP-62 NSCLC = system: HOP-62 NSCLC
HS 578T breast = system: HS 578T breast
OVCAR-5 ovarian = system: OVCAR-5 ovarian
SNB-75 CNS = system: SNB-75 CNS
OVCAR-3 ovarian = system: OVCAR-3 ovarian
T-47D breast = system: T-47D breast
SK-OV-3 ovarian = system: SK-OV-3 ovarian
HCT-15 colon = system: HCT-15 colon
A498 renal = system: A498 renal
MDA-MB-468 breast = system: MDA-MB-468 breast
OVCAR-4 ovarian = system: OVCAR-4 ovarian
UACC-62 melanoma = system: UACC-62 melanoma
CCRF-CEM leukemia = system: CCRF-CEM leukemia
MDA-MB-231 breast = system: MDA-MB-231 breast
SK-MEL-2 melanoma = system: SK-MEL-2 melanoma
HT29 colon = system: HT29 colon
OVCAR-8 ovarian = system: OVCAR-8 ovarian
DU-145 prostate = system: DU-145 prostate
IGROV1 ovarian = system: IGROV1 ovarian
RPMI-8226 leukemia = system: RPMI-8226 leukemia
MDA-MB-435 = system: MDA-MB-435

## Cc1ccc(CNC(=O)Cc2ccc3c(c2)CN(C2CCC(=O)NC2=O)C3=O)cc1 (centres undefined)
COLO 205 colon
  GI50: < 10 nM
  TGI: 54.5 nM
MALME-3M melanoma
  GI50: < 10 nM
  TGI: < 12.6 nM
SF-268 CNS
  GI50: 29.9 nM
  TGI: > 100000 nM
NCI-H226 lung
  GI50: < 10 nM
  TGI: 1030 nM
LOX IMVI melanoma
  GI50: > 71600 nM
  TGI: > 100000 nM
MOLT-4 leukemia
  GI50: < 10 nM
  TGI: > 100000 nM
SN12C renal
  GI50: 21.7 nM
U251 CNS
  GI50: 375 nM
  TGI: > 100000 nM
TK-10 renal
  GI50: 95.3 nM
  TGI: > 100000 nM
EKVX NSCLC
  GI50: 384 nM
  TGI: > 100000 nM
K-562 leukemia
  GI50: 51.5 nM
  TGI: > 100000 nM
SF-295 CNS
  GI50: 46 nM
  TGI: > 100000 nM
UO-31 renal
  GI50: 19.1 nM
  TGI: 469 nM
NCI-H460 lung
  GI50: > 100000 nM
  TGI: > 100000 nM
KM12 colon
  GI50: 31.1 nM
  TGI: > 100000 nM
HOP-92 NSCLC
  GI50: < 10 nM
  TGI: < 19.6 nM
NCI-H23 lung
  GI50: 5090 nM
  TGI: > 100000 nM
M14 melanoma
  GI50: < 13.1 nM
  TGI: 1850 nM
SW-620 colon
  GI50: < 10 nM
  TGI: > 100000 nM
NCI/ADR-RES ovarian
  GI50: 470 nM
  TGI: > 100000 nM
HCC-2998 colon
  GI50: < 10 nM
  TGI: 258 nM
NCI-H522 lung
  GI50: 622 nM
  TGI: > 100000 nM
CAKI-1 renal
  GI50: 25.1 nM
  TGI: > 100000 nM
UACC-257 melanoma
  GI50: > 100000 nM
  TGI: > 100000 nM
786-0 renal
  GI50: 20.2 nM
HCT-116 colon
  GI50: > 36500 nM
  TGI: > 100000 nM
SNB-19 CNS
  GI50: < 11.5 nM
A549 NSCLC
  GI50: 51.5 nM
  TGI: > 100000 nM
BT-549 breast
  GI50: < 10 nM
  TGI: < 12.8 nM
SK-MEL-28 melanoma
  GI50: 70.1 nM
  TGI: > 100000 nM
RXF 393 renal
  GI50: 24.8 nM
  TGI: 955 nM
MCF7 breast
  GI50: 21.7 nM
  TGI: > 100000 nM
SR leukemia
  GI50: 4540 nM
  TGI: > 100000 nM
PC-3 prostate
  GI50: < 10 nM
HL-60(TB) leukemia
  GI50: < 10 nM
  TGI: 2740 nM
ACHN renal
  GI50: 445 nM
  TGI: > 100000 nM
SK-MEL-5 melanoma
  GI50: 14.8 nM
  TGI: 59.4 nM
SF-539 CNS
  GI50: 50.3 nM
  TGI: > 100000 nM
HOP-62 NSCLC
  GI50: < 10 nM
  TGI: 110 nM
HS 578T breast
  GI50: < 10 nM
  TGI: 267 nM
OVCAR-5 ovarian
  GI50: 16.9 nM
  TGI: 1780 nM
SNB-75 CNS
  GI50: < 10 nM
  TGI: 357 nM
OVCAR-3 ovarian
  GI50: 160 nM
  TGI: > 100000 nM
T-47D breast
  GI50: < 10 nM
  TGI: 29.2 nM
SK-OV-3 ovarian
  GI50: 77 nM
HCT-15 colon
  GI50: 16 nM
  TGI: 888 nM
A498 renal
  GI50: 18.3 nM
  TGI: 648 nM
MDA-MB-468 breast
  GI50: < 10 nM
OVCAR-4 ovarian
  GI50: 32.1 nM
UACC-62 melanoma
  GI50: 309 nM
  TGI: > 100000 nM
CCRF-CEM leukemia
  GI50: < 10 nM
  TGI: > 100000 nM
MDA-MB-231 breast
  GI50: < 10 nM
SK-MEL-2 melanoma
  GI50: 20.6 nM
  TGI: 94.5 nM
HT29 colon
  GI50: 50.1 nM
  TGI: > 100000 nM
OVCAR-8 ovarian
  GI50: < 10 nM
DU-145 prostate
  GI50: 1090 nM
  TGI: > 100000 nM
IGROV1 ovarian
  GI50: < 10 nM
  TGI: 148 nM
RPMI-8226 leukemia
  GI50: 40.9 nM
  TGI: > 100000 nM
MDA-MB-435
  GI50: 43.6 nM
  TGI: > 100000 nM
